Assay results published in publication PMC9238401, “Peptide Conjugates Derived from flg15, Pep13, and PIP1 That Are Active against Plant-Pathogenic Bacteria and Trigger Plant Defense Responses” (Applied and Environmental Microbiology, 2022).
Non-standard residues stand in square brackets, D forms with d. Residues, ends and D or L forms follow the SMILES beside them. *: point of attachment. Butyryl = CCCC(=O)*

Key:
[1] = tested on: Xanthomonas axonopodis pv. vesicatoria 2133-2; conditions: TSB, 25°C, 48 h, OD 600 nm (Bioscreen C), three replicates, experiment repeated twice; MIC given as range
Outline: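 Bacteria grown 24 h (48 h for Xanthomonas axonopodis, X. fragariae) at 25°C, suspended at 10^8 CFU mL^−1, mixed with peptide dilutions in TSB.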

[2] = tested on: Pseudomonas syringae pv. syringae EPS94; assay: In vitro growth inhibition (MIC); type: cell-based; conditions: TSB, 25°C, 48 h, OD 600 nm (Bioscreen C), three replicates, experiment repeated twice; MIC given as range
Outline: (§1)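 Strains were grown 24 h at 25°C on agar, then suspended in sterile water at 10^8 CFU mL^−1 and mixed with peptide dilutions in Trypticase soy broth. Plates were incubated at 25°C with shaking and OD600 read hourly for 48 h. MIC is the lowest concentration with no growth at 48 h.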

[3] = tested on: Erwinia amylovora PMV6076; assay: In vitro growth inhibition (MIC); type: cell-based; conditions: TSB, 25°C, 48 h, OD 600 nm (Bioscreen C), three replicates, experiment repeated twice; MIC = lowest concentration with no growth, given as range
Outline: as §1

[4] = tested on: Xanthomonas arboricola pv. pruni CFBP5563; assay: In vitro growth inhibition (MIC); type: cell-based; conditions: TSB, 25°C, 48 h, OD 600 nm (Bioscreen C), three replicates, experiment repeated twice; MIC given as range
Outline: as §1

[5] = tested on: Pseudomonas syringae pv. actinidiae Psa3700.1.1; assay: In vitro growth inhibition (MIC); type: cell-based; conditions: TSB, 25°C, 48 h, OD 600 nm (Bioscreen C), three replicates, experiment repeated twice; MIC given as range
Outline: as §1

[6] = tested on: Xanthomonas fragariae Xf349-9A; assay: In vitro growth inhibition (MIC); type: cell-based; conditions: TSB, 25°C, 48 h, OD 600 nm (Bioscreen C), three replicates, experiment repeated twice; MIC given as range
Outline: as §1

[7] = tested on: horse erythrocytes; conditions: TRIS buffer pH 7.2, 1 h, 37°C, absorbance 540 nm, relative to melittin 100 μM, ± confidence interval (α = 0.05)
Outline: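 Hemolysis measured as absorbance at 540 nm of supernatant, expressed as percent of melittin-lysed control after buffer subtraction. Compound solutions (750, 500, 300, 100 μM, Tris-buffered saline pH 7.2) were combined 1:1 with washed horse red cells for 1 h, 37°C, shaking.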

## CCCC(=O)NCCCC[C@H](NC(=O)[C@H](CCCCN)NC(=O)[C@H](CC(C)C)NC(=O)[C@@H](NC(=O)[C@H](CCCCN)NC(=O)[C@H](CCCCN)NC(=O)[C@@H](Cc1ccccc1)NC(=O)[C@H](CC(C)C)NC(=O)[C@H](CCCCN)NC(=O)[C@H](CCCCN)NC(=O)[C@H](Cc1c[nH]cn1)NC(=O)[C@@H](NC(=O)[C@H](Cc1c[nH]cn1)NC(=O)[C@@H](NC(=O)CNC(=O)[C@H](Cc1ccc(O)cc1)NC(C)=O)[C@@H](C)CC)[C@@H](C)O)[C@@H](C)CC)C(=O)N[C@@H](CC(C)C)C(N)=O [PIP1-BP475] (Ac-YGIHTHKKL[dF]KKILKK(Butyryl)L-NH2)
[1]
  MIC, Xav: < 0.8 µM
[2]
  MIC, Pss: 3.1 to 6.2 µM
[3]
  MIC, Ea: 3.1 to 6.2 µM
[4]
  MIC, Xap: < 0.8 µM
[5]
  MIC, Psa: 1.6 to 3.1 µM
[6]
  MIC, Xf: 12.5 to 25 µM
[7]
  Percent hemolysis at 50 μM: 4 ± 0.4%
  Percent hemolysis at 150 μM: 11 ± 0.5%
  Percent hemolysis at 250 μM: 18 ± 0.1%
  Percent hemolysis at 375 μM: 24 ± 0.5%

## CCCC(=O)NCCCC[C@H](NC(=O)[C@H](CCCCN)NC(=O)[C@H](CC(C)C)NC(=O)[C@@H](NC(=O)[C@H](CCCCN)NC(=O)[C@H](CCCCN)NC(=O)[C@@H](Cc1ccccc1)NC(=O)[C@H](CC(C)C)NC(=O)[C@H](CCCCN)NC(=O)[C@H](CCCCN)NC(=O)[C@H](C)NC(=O)[C@@H](NC(=O)[C@H](CCC(N)=O)NC(=O)[C@H](CC(C)C)NC(=O)CNC(=O)[C@H](C)NC(=O)[C@H](C)NC(=O)[C@H](CC(=O)O)NC(=O)[C@H](CC(=O)O)NC(=O)[C@H](CCCCN)NC(=O)[C@H](C)NC(=O)[C@H](CO)NC(=O)[C@H](CC(N)=O)NC(=O)[C@@H](NC(=O)[C@H](CCCNC(=N)N)NC(C)=O)[C@@H](C)CC)[C@@H](C)CC)[C@@H](C)CC)C(=O)N[C@@H](CC(C)C)C(N)=O [flg15-BP475] (Ac-RINSAKDDAAGLQIAKKL[dF]KKILKK(Butyryl)L-NH2)
[1]
  MIC, Xav: < 0.8 µM
[2]
  MIC, Pss: 12.5 to 25 µM
[3]
  MIC, Ea: 3.1 to 6.2 µM
[4]
  MIC, Xap: < 0.8 µM
[5]
  MIC, Psa: 3.1 to 6.2 µM
[6]
  MIC, Xf: 6.2 to 12.5 µM
[7]
  Percent hemolysis at 50 μM: 7 ± 0.6%
  Percent hemolysis at 150 μM: 28 ± 2.3%
  Percent hemolysis at 250 μM: 43 ± 2.7%
  Percent hemolysis at 375 μM: 46 ± 3.6%

## RINSAKDDAAGLQIA-OH [flg15]
[1]
  MIC, Xav: > 100 µM
[2]
  MIC, Pss: > 100 µM
[3]
  MIC, Ea: > 100 µM
[4]
  MIC, Xap: > 100 µM
[5]
  MIC, Psa: > 100 µM
[6]
  MIC, Xf: > 100 µM
[7]
  Percent hemolysis at 50 μM: 0 ± 0%
  Percent hemolysis at 150 μM: 0 ± 0%
  Percent hemolysis at 250 μM: 0 ± 0%
  Percent hemolysis at 375 μM: 0 ± 0%

## YGIHTH-NH2 [PIP1]
[1]
  MIC, Xav: > 50 µM
[2]
  MIC, Pss: > 50 µM
[3]
  MIC, Ea: > 50 µM
[4]
  MIC, Xap: > 50 µM
[5]
  MIC, Psa: > 50 µM
[6]
  MIC, Xf: > 50 µM
[7]
  Percent hemolysis at 50 μM: 4 ± 0.8%
  Percent hemolysis at 150 μM: 0.5 ± 0.3%
  Percent hemolysis at 250 μM: 0 ± 2%
  Percent hemolysis at 375 μM: 1 ± 0.1%
